≈ marks a conversion by molar mass, not a printed value. Read-outs that look alike come from different tables or passages of the source.
Assays:
Assay type in all cases: cell-based
[1] = system: M. suipneumoniae LABER; experiment: Anti-mycoplasmal MIC in vitro, Friis broth agarose (Table 1); settings: Mesomycoplasma hyopneumoniae, 144 h
[2] = system: M. suipneumoniae NCTC 10110; experiment: as above; settings: Mesomycoplasma hyopneumoniae, NCTC10110, 144 h
[3] = system: Strep. dylgalactiae SPD1; experiment: Veterinary bacteria MIC, Diagnostic Sensitivity Test Agar (Table 2)
Protocol: (§1) The values were determined using a two fold serial dilutions in Diagnostic Sensitivity Test Agar with an inoculum of 10^4 organisms and incubation for 18 hours at 37° C.

[4] = system: Staph. aureus 152; experiment: as above
Protocol: as §1

[5] = system: Past. multocida PA2; experiment: as above; settings: Pasteurella multocida, PA2, 18 h
Protocol: as §1

[6] = system: Bord. bronchiseptica BO9; experiment: as above; settings: Bordetella bronchiseptica
Protocol: as §1

[7] = system: Strep. suis (group D) SPS11; experiment: as above; settings: Streptococcus suis, 18 h
Protocol: as §1

[8] = system: Strep. uberis SPO1; experiment: as above; settings: Streptococcus uberis
Protocol: as §1

[9] = system: Past. haemolytica PA5; experiment: as above; settings: Mannheimia haemolytica
Protocol: as §1

[10] = system: Staph. aureus Oxford; experiment: as above; settings: Staphylococcus aureus
Protocol: as §1

[11] = system: Erysipelothrix rhusiopathiae NCTC 8163; experiment: as above; settings: Erysipelothrix rhusiopathiae, NCTC8163, 18 h
Protocol: as §1

[12] = system: Corynebacterium pyogenes CY1; experiment: as above; settings: Trueperella pyogenes, CY1, 18 h
Protocol: as §1

[13] = system: S. typhimurium S18; experiment: as above; settings: Salmonella enterica, TYPHIMURIUM, 18 h
Protocol: as §1

[14] = system: Strep. agalactiae SPA1; experiment: as above; settings: Streptococcus agalactiae
Protocol: as §1

[15] = system: E. Coli E1; experiment: as above; settings: Escherichia coli, 18 h
Protocol: as §1

[16] = system: E. Coli NCTC 10418; experiment: as above; settings: Escherichia coli, NCTC10418, 18 h
Protocol: as §1

[17] = system: Staph. aureus B4; experiment: as above; settings: Staphylococcus aureus
Protocol: as §1

[18] = system: Bord. bronchiseptica BO8; experiment: as above; settings: Bordetella bronchiseptica, BO8, 18 h
Protocol: as §1

[19] = system: Past. multocida PA1; experiment: as above; settings: Pasteurella multocida, PA1, 18 h
Protocol: as §1

[20] = system: S. dublin S7; experiment: as above; settings: Salmonella enterica, S7, 18 h
Protocol: as §1

[21] = system: M. bovigenitalium ATOC 14173; experiment: Anti-mycoplasmal MIC in vitro, Friis broth agarose (Table 1); settings: 144 h
[22] = system: M. suipneumoniae J2206/183b; experiment: as above; settings: Mesomycoplasma hyopneumoniae, J2206/183B, 144 h
[23] = system: M. hyorhinis ATCC 23234; experiment: as above; settings: Mesomycoplasma hyorhinis, ATCC23234, 144 h
[24] = system: M. bovis RCTC 10131; experiment: microbe, parasite or virus in culture; settings: RCTC10131, 144 h
[25] = system: M. gallisepticum S6; experiment: Anti-mycoplasmal MIC in vitro, Friis broth agarose (Table 1); settings: Mycoplasmoides gallisepticum, S6, 144 h
[26] = system: M. dispar RCTC 10125; experiment: as above; settings: 144 h
[27] = system: M. suipneumoniae JF 435; experiment: as above; settings: Mesomycoplasma hyopneumoniae, JF435, 144 h
[28] = system: M. suipneumoniae TAM 6N; experiment: as above; settings: Mesomycoplasma hyopneumoniae, TAM6N, 144 h
[29] = Staphylococcus aureus, 152, 18 h

Compound	MIC [1] [µg/mL]	MIC [2] [µg/mL]	MIC [5] [µg/mL]	MIC [7] [µg/mL]	MIC [11] [µg/mL]	MIC [12] [µg/mL]	MIC [13] [µg/mL]	MIC [15] [µg/mL]	MIC [16] [µg/mL]	MIC [18] [µg/mL]	MIC [19] [µg/mL]	MIC [20] [µg/mL]	MIC [21] [µg/mL]	MIC [22] [µg/mL]	MIC [23] [µg/mL]	MIC [24] [µg/mL]	MIC [25] [µg/mL]	MIC [26] [µg/mL]	MIC [27] [µg/mL]	MIC [28] [µg/mL]	also measured
C/C(=C\C(=O)OCc1ccc([N+](=O)[O-])c([N+](=O)[O-])c1)CC1OCC(CC2OC2C(C)C(C)O)C(O)C1O (stereo not drawn) [Example 9, 3,4-dinitrobenzyl monate A]	0.25 (≈ 0.477 µM)	0.5 (≈ 0.953 µM)	0.156 (≈ 0.297 µM)	5 (≈ 9.53 µM)	40 (≈ 76.3 µM)	> 80	80 (≈ 153 µM)	80 (≈ 153 µM)	80 (≈ 153 µM)	10 (≈ 19.1 µM)	0.625 (≈ 1.19 µM)	> 80	≤ 0.01	1 (≈ 1.91 µM)	0.25 (≈ 0.477 µM)	≤ 0.01	5 (≈ 9.53 µM)	0.025 (≈ 0.0477 µM)	1 (≈ 1.91 µM)	0.5 (≈ 0.953 µM)	MIC ([3]; 18 h): 0.07 µg/mL (≈ 0.133 µM); MIC [4, 29]: 0.312 µg/mL (≈ 0.595 µM); MIC ([6]; BO9, 18 h): 5 µg/mL (≈ 9.53 µM); MIC ([8]; SPO1, 18 h): 0.156 µg/mL (≈ 0.297 µM); MIC ([9]; PA5, 18 h): 5 µg/mL (≈ 9.53 µM); MIC ([10]; 18 h): 0.312 µg/mL (≈ 0.595 µM); MIC ([14]; SPA1, 18 h): 0.312 µg/mL (≈ 0.595 µM); MIC ([17]; B4, 18 h): 0.625 µg/mL (≈ 1.19 µM)
C/C(=C\C(=O)OCc1ccc([N+](=O)[O-])cc1[N+](=O)[O-])CC1OCC(CC2OC2C(C)C(C)O)C(O)C1O (stereo not drawn) [Example 10, 2,4-dinitrobenzyl monate A]	0.5 (≈ 0.953 µM)	1 (≈ 1.91 µM)	0.625 (≈ 1.19 µM)	5 (≈ 9.53 µM)	20 (≈ 38.1 µM)	> 80	> 80	> 80	> 80	40 (≈ 76.3 µM)	2.5 (≈ 4.77 µM)	> 80	0.025 (≈ 0.0477 µM)	1 (≈ 1.91 µM)	0.5 (≈ 0.953 µM)	≤ 0.01	5 (≈ 9.53 µM)	0.25 (≈ 0.477 µM)	1 (≈ 1.91 µM)	1 (≈ 1.91 µM)	MIC ([3]; 18 h): 0.312 µg/mL (≈ 0.595 µM); MIC [4, 29]: 0.625 µg/mL (≈ 1.19 µM); MIC ([6]; BO9, 18 h): 5 µg/mL (≈ 9.53 µM); MIC ([8]; SPO1, 18 h): 0.312 µg/mL (≈ 0.595 µM); MIC ([9]; PA5, 18 h): 2.5 µg/mL (≈ 4.77 µM); MIC ([10]; 18 h): 0.625 µg/mL (≈ 1.19 µM); MIC ([14]; SPA1, 18 h): 1.25 µg/mL (≈ 2.38 µM); MIC ([17]; B4, 18 h): 0.625 µg/mL (≈ 1.19 µM)
C/C(=C\C(=O)OCc1ccc([N+](=O)[O-])cc1Cl)CC1OCC(CC2OC2C(C)C(C)O)C(O)C1O (stereo not drawn) [Example 11, 2-chloro-4-nitrobenzyl monate A]	1 (≈ 1.95 µM)	1 (≈ 1.95 µM)	0.156 (≈ 0.304 µM)	0.625 (≈ 1.22 µM)	5 (≈ 9.73 µM)	> 80	80 (≈ 156 µM)	80 (≈ 156 µM)	80 (≈ 156 µM)	10 (≈ 19.5 µM)	0.625 (≈ 1.22 µM)	80 (≈ 156 µM)	0.05 (≈ 0.0973 µM)	1 (≈ 1.95 µM)	0.5 (≈ 0.973 µM)	0.025 (≈ 0.0486 µM)	2.5 (≈ 4.86 µM)	0.5 (≈ 0.973 µM)	2.5 (≈ 4.86 µM)	2.5 (≈ 4.86 µM)	MIC ([3]; Strep. dylgalactiae SPD1, DST Agar, 10^4 organisms, 18 hours 37° C., read-out: MIC): 0.156 µg/mL (≈ 0.304 µM); MIC ([4]; Staphylococcus aureus, Staph. aureus 152, DST Agar, 10^4 organisms, 18 hours 37° C., read-out: MIC): 0.07 µg/mL (≈ 0.136 µM); MIC ([6]; Bord. bronchiseptica BO9, DST Agar, 10^4 organisms, 18 hours 37° C., read-out: MIC): 2.5 µg/mL (≈ 4.86 µM); MIC ([8]; Strep. uberis SPO1, DST Agar, 10^4 organisms, 18 hours 37° C., read-out: MIC): ≤ 0.019 µg/mL; MIC ([9]; Past. haemolytica PA5, DST Agar, 10^4 organisms, 18 hours 37° C., read-out: MIC): 2.5 µg/mL (≈ 4.86 µM); MIC ([10]; Staph. aureus Oxford, DST Agar, 10^4 organisms, 18 hours 37° C., read-out: MIC): 0.07 µg/mL (≈ 0.136 µM); MIC ([14]; Strep. agalactiae SPA1, DST Agar, 10^4 organisms, 18 hours 37° C., read-out: MIC): 0.156 µg/mL (≈ 0.304 µM); MIC ([17]; Staph. aureus B4, DST Agar, 10^4 organisms, 18 hours 37° C., read-out: MIC): 0.156 µg/mL (≈ 0.304 µM)
